Test results taken from patent US20240316008A1, “TREATMENT OF SYSTEMIC IMMUNE ACTIVATION SYNDROMES” (TRANQUIS THERAPEUTICS, INC., priority 2020, published 2024).

Assays:
[1] = test system: IL-6; experiment: LPS-stimulated IL-6 secretion from human PBMC (ELISA); type: cell-based; settings: human PBMC from a first donor, 1 ng/ml LPS, 24h
Protocol: Briefly, 20,000 human PBMC were aliquoted into each well. LPS was added at 1 ng/ml and the cells incubated for 24h in the presence of LPS and TQS-168 or one of its metabolites. Readouts were human IL-6 ELISA and human TNFα ELISA. For assay, supernatants were diluted in culture medium. The supernatant dilution for the IL-6 ELISA was 1:8, and 1:2 for the human TNFα ELISA.

[2] = test system: IL-6; experiment: Spontaneous IL-6 release of PBMCs from an ALS patient (ELISA); type: cell-based, human; settings: 1 μM, 24 hours, no LPS, versus medium only
Protocol: PBMCs from an ALS patient were used for this study. Whole blood samples were collected from the patient and processed for PBMC isolation with Ficoll gradient method. PBMC samples were stored in liquid nitrogen at […] for subsequent analysis of IL-6 production.
Frozen PBMC samples were thawed and rested at 37° C. […] Therefore PBMC stimulation by LPS was not required to evaluate the effects of TQS-168 and metabolite TQS-621 on IL-6 production. PBMC samples (5×10^5 cells per well) were incubated with medium only, TQS-168 (1 μM) or TQS-621 (1 μM). After 24 hours, supernatants were collected for quantification of IL-6 levels by ELISA.

[3] = test system: 12 human primary cell-based systems; experiment: Eurofins BioMAP Diversity PLUS panel
[4] = test system: Ppargc1α mRNA; experiment: Ppargc1α mRNA expression in BV2 cells (rt-PCR); type: cell-based, murine; settings: concentrations ranging from 0.7 μM to 20 μM, normalized to beta-actin mRNA
From the text: RNA was processed for real-time PCR.

[5] = test system: TNF-α; experiment: LPS-induced TNF-α production of human PBMC (CBA assay); type: cell-based; settings: 100 ng/ml LPS, 24 hours, compared to no treatment
Protocol: Peripheral blood mononuclear cells (PBMC) from 4 different healthy volunteers were used in this study. Fresh blood samples were collected at Stanford Blood Center and processed for PBMC isolation with Ficoll gradient. PBMC samples were stored in liquid nitrogen at […] for subsequent analysis of TNF-α production. For TNF-α stimulation, frozen PBMC samples were thawed and rested at 37° C. before cells were stimulated with 100 ng/ml of LPS for 24 hours. DMSO (1:1000 final dilution) or TQS-168 in DMSO (1:1000 final dilution) at various concentrations was added to cell cultures of LPS-stimulated PBMC to evaluate the effects of T-168 on TNF-α production of human primary myeloid cells. After 24 hours stimulation, supernatant samples from various conditions were collected and TNF-α concentrations in the supernatants analyzed with cytometric bead array (CBA) assay per protocols from BD Biosciences. TNF-α was quantified by median fluorescent intensity reading (MFI). Samples were analyzed directly after staining with LSRII flow cytometer.

[6] = test system: IL-6; experiment: IL-6 secretion from LPS-stimulated BV2 cells (CBA assay); type: cell-based, murine; settings: 100 ng/ml LPS, 1 μM-20 μM, 24 hours
Protocol: LPS was used to induce cytokine secretion from BV-2 cells. Cells were incubated with TQS-168 at various concentrations to assess whether TQS-168 could suppress the LPS-promoted release of various cytokines from in vitro cell cultures. Cytokine secretion was measured by cytometric bead array (CBA) fluorescence-activated cell sorting (FACS). Briefly, a vial of BV2 frozen stock (1 million cells per ml in complete medium) was thawed into 10 mL of complete medium per vial for a total of 4 vials. The vials were then centrifuged at 1800 rpm for 3 minutes to wash away freezing media. The four vials were then pooled into 25 mL of complete medium. TQS-168 was prepared in DMSO. Cells were incubated for 24 hours in the presence of medium (negative control), LPS (positive control), DMSO+LPS (positive control, controlling additionally for presence of DMSO in the TQS-168 stock solution), or LPS+TQS-168 at final concentrations of 1 μM, 5 μM, 10 μM, and 20 μM. After the well plates were incubated overnight for 24 hours, they were centrifuged at 1800 rpm for 5 minutes. Next, 150 μl from each well was transferred to a new set of plates, of which 50 μl was used for CBA. The plates were then centrifuged with the cells, followed by addition of 100 μl of DAPI (50 ml of PBS+10 μl of DAPI stock at 1:5000 dilution). […]

[7] = BioMAP report, profile at 6.7 μM, 2.2 μM, 740 nM
[8] = profile at 6.7 μM, 2.2 μM, 740 nM
[9] = profile at 20 μM, 6.7 μM, 2.2 μM, 740 nM

CC(C)(C)c1ccc(-c2nc3ccccc3[nH]2)cc1 [TQS-168, 2-(4-tert-butylphenyl)-1H-benzimidazole] was tested, and the “LPS-stimulated IL-6 secretion from PBMCs” value [1] was “inhibition”, the “spontaneous release of IL-6 (amount of IL-6 produced)” value [2] was “reduction” and the “decrease in sIgG, sIL-17F, sTNFα from B and T cells” value ([3]; 6.7 μM) was “greatest decrease”. For the same molecule, the “cytotoxicity to endothelial cells” value ([3]; 20 μM) was “cytotoxic”, the “highest nontoxic concentration tested” value ([3]; BioMAP Diversity PLUS panel) was 6.7 µM and the “tissue remodeling activity MMP-1” value [3, 7] was “increased”. The “tissue remodeling activity αSMA” value [3, 7] was “decreased”, the “activity at non-cytotoxic concentrations” value [3, 8] was “active” and the “immune markers sIgG, sIL-17-F, sTNFα (from B and T cells, not monocytes)” value [3, 8] was “decreased”. For the same molecule, the “inflammatory markers sPGE2 (from monocytes), IL-8” value [3, 8] was “decreased”, the “proliferation of endothelial cells, T cells, B cells & fibroblasts” value [3, 8] was “anti-proliferative” and the sIL-6 [3, 8] was “increased”. The “tissue remodeling markers MMP1, alpha-SMA” value [3, 8] was “modulated”, the VCAM-1 [3, 9] was “increased” and the “immune markers sIgG, sIL-17A, sIL-17F, sIL-2, sTNFα, sIL-6 (from B and T cells, not monocytes)” value [3, 9] was “decreased”. The “Ppargc1α mRNA expression” value [4] was “induces”, the “suppression of TNFα production” value ([5]; 5 μM) was “statistically significant suppression” and the “suppression of TNFα production” value ([5]; 20 μM) was “statistically significant suppression”. For the same molecule, the “LPS-induced secretion of IL-6” value [6] was “reduce”.
